According to publication PMC6691192 (Chemical communications (Cambridge, England), 2019):

Test system: non-cancerous human breast cell line MCF-10A
Assay: Cell viability assay
Type: cell-based
Settings: for EC50(C)/EC50 (B): selectivity ratio MCF-10A over BT-474; for EC50(C)/EC50(A): selectivity ratio MCF-10A over MCF-7

Compound | EC50(C)/EC50 (B) | EC50(C)/EC50(A)
[Cl][Au].c1ccc(P(c2ccccc2)c2ccccc2)cc1 [[AuCl(PPh3)]] | 5.70 ± 0.43 | 5.30 ± 0.61
CC[P](CC)(CC)=[Au][S][C@@H]1O[C@H](COC(C)=O)[C@@H](OC(C)=O)[C@H](OC(C)=O)[C@H]1OC(C)=O [AF, [(2R,3R,4S,5R,6S)-3,4,5-tris(acetyloxy)-6-{[(triethyl-λ5-phosphanylidene)aurio]sulfanyl}oxan-2-yl]methyl acetate] | 0.81 ± 0.13 | 0.78 ± 0.11
[Au(mba)(PPh3)] | 1.57 ± 0.13 | 2.34 ± 0.35
